Laboratory results published in patent US4205170A, “Propionic acid derivatives” (priority 1976, dated 1980).
Read-outs that look alike come from different tables or passages of the source.

System: edema in the hind paws (carrageenan)
Assay: carrageenan-induced hind paw edema, oral administration
Format: in vivo, male Wistar rats
Conditions: Rattus norvegicus; for inhibition in vivo at 8 mg/kg: 8 mg/kg orally
Method: That is, male Wistar rats weighing about 100 g, one group consisting of 5 to 7 animals, were given orally the compounds according to the present invention and then edema was induced in the hind paws by subcutaneous injections of 0.1 ml of 1% carrageenan 1 hour after the administration of the test compounds, and the volumes of the hind paws were measured by a volume differential meter.

[1] = 10 mg/kg orally, 1 hr, read-out: Inhibition (%) 1 hr
[2] = 10 mg/kg orally, 2 hr, read-out: Inhibition (%) 2 hr
[3] = 10 mg/kg orally, 3 hr, read-out: Inhibition (%) 3 hr
[4] = 10 mg/kg orally, 4 hr, read-out: Inhibition (%) 4 hr
[5] = 10 mg/kg orally, 5 hr, read-out: Inhibition (%) 5 hr
[6] = 10 mg/kg orally, 6 hr, read-out: Inhibition (%) 6 hr
[7] = 1 h, read-out: Inhibition (%) 1 hr
[8] = 2 h, read-out: Inhibition (%) 2 hr
[9] = 3 h, read-out: Inhibition (%) 3 hr
[10] = 4 h, read-out: Inhibition (%) 4 hr
[11] = 5 h, read-out: Inhibition (%) 5 hr
[12] = 6 h, read-out: Inhibition (%) 6 hr

## CC(C(N)=O)c1ccc2c(c1)C(=O)Cc1ccccc1S2 (stereo not drawn) [Compound 1, 2-(10,11-dihydro-11-oxodibenzo[b,f]thiepin-2-yl)-propionamide]
[1]
  inhibition in vivo at 10 mg/kg: 47.1%
[2]
  inhibition in vivo at 10 mg/kg: 66.7%
[3]
  inhibition in vivo at 10 mg/kg: 70.5%
[4]
  inhibition in vivo at 10 mg/kg: 73.6%
[5]
  inhibition in vivo at 10 mg/kg: 68%
[6]
  inhibition in vivo at 10 mg/kg: 66%

## CC(C(=O)O)c1ccc2c(c1)C(=O)Cc1ccccc1S2 (stereo not drawn) [Compound 2, 2-(10,11-dihydro-11-oxodibenzo[b,f]thiepin-2-yl)-propionic acid]
[7]
  inhibition in vivo at 1 mg/kg: 53.8%
  inhibition in vivo at 10 mg/kg: 55%
[8]
  inhibition in vivo at 1 mg/kg: 57.3%
  inhibition in vivo at 10 mg/kg: 76.3%
[9]
  inhibition in vivo at 1 mg/kg: 70.9%
  inhibition in vivo at 10 mg/kg: 78%
[10]
  inhibition in vivo at 1 mg/kg: 69.6%
  inhibition in vivo at 10 mg/kg: 78.5%
[11]
  inhibition in vivo at 1 mg/kg: 68.7%
  inhibition in vivo at 10 mg/kg: 74.8%
[12]
  inhibition in vivo at 1 mg/kg: 65.6%
  inhibition in vivo at 10 mg/kg: 70%

## CCOC(=O)C(C)c1ccc2c(c1)C(=O)Cc1ccccc1S2 (stereo not drawn) [Compound 3, Ethyl 2-(10,11-dihydro-11-oxodibenzo[b,f]thiepin-2-yl)-propionate]
[1]
  inhibition in vivo at 10 mg/kg: 62.3%
[2]
  inhibition in vivo at 10 mg/kg: 72%
[3]
  inhibition in vivo at 10 mg/kg: 79.9%
[4]
  inhibition in vivo at 10 mg/kg: 78.2%
[5]
  inhibition in vivo at 10 mg/kg: 74.5%
[6]
  inhibition in vivo at 10 mg/kg: 64.5%

## CC(C(=O)O)c1ccc2c(c1)CCc1ccccc1S2 (stereo not drawn) [Compound 4, 2-(10,11-dihydrodibenzo[b,f]thiepin-2-yl)-propionic acid]
[1]
  inhibition in vivo at 10 mg/kg: 47.2%
[2]
  inhibition in vivo at 10 mg/kg: 58.8%
[3]
  inhibition in vivo at 10 mg/kg: 54.6%
[4]
  inhibition in vivo at 10 mg/kg: 48.3%
[5]
  inhibition in vivo at 10 mg/kg: 41%
[6]
  inhibition in vivo at 10 mg/kg: 35%

## CCOC(=O)C(C)c1ccc2c(c1)CCc1ccccc1S2 (stereo not drawn) [Compound 5, Ethyl 2-(10,11-dihydrodibenzo[b,f]thiepin-2-yl)-propionate]
[1]
  inhibition in vivo at 10 mg/kg: 56.6%
[2]
  inhibition in vivo at 10 mg/kg: 68%
[3]
  inhibition in vivo at 10 mg/kg: 67.4%
[4]
  inhibition in vivo at 10 mg/kg: 52.2%
[5]
  inhibition in vivo at 10 mg/kg: 38.7%
[6]
  inhibition in vivo at 10 mg/kg: 29.3%

## CC(C(=O)O)c1ccc2c(c1)Sc1ccccc1CC2=O (stereo not drawn) [Compound 6, 2-(10,11-dihydro-11-oxodibenzo[b,f]thiepin-3-yl)-propionic acid]
[1]
  inhibition in vivo at 10 mg/kg: 65.9%
[2]
  inhibition in vivo at 10 mg/kg: 41.5%
[3]
  inhibition in vivo at 10 mg/kg: 31.8%
[4]
  inhibition in vivo at 10 mg/kg: 26.1%
[5]
  inhibition in vivo at 10 mg/kg: 22.3%
[6]
  inhibition in vivo at 10 mg/kg: 20.5%

## CCOC(=O)C(C)c1ccc2c(c1)Sc1ccccc1CC2=O (stereo not drawn) [Compound 7, Ethyl 2-(10,11-dihydro-11-oxodibenzo[b,f]thiepin-3-yl)-propionate]
[1]
  inhibition in vivo at 10 mg/kg: 58.7%
[2]
  inhibition in vivo at 10 mg/kg: 39.6%
[3]
  inhibition in vivo at 10 mg/kg: 31.2%
[4]
  inhibition in vivo at 10 mg/kg: 25.9%
[5]
  inhibition in vivo at 10 mg/kg: 22.3%
[6]
  inhibition in vivo at 10 mg/kg: 18.8%

## CCOC(=O)C(C)c1ccc2c(c1)Sc1ccccc1CC2 (stereo not drawn) [Compound 8, Ethyl 2-(10,11-dihydrodibenzo[b,f]thiepin-3-yl)-propionate]
[1]
  inhibition in vivo at 10 mg/kg: 43.2%
[2]
  inhibition in vivo at 10 mg/kg: 37.8%
[3]
  inhibition in vivo at 10 mg/kg: 26.9%
[4]
  inhibition in vivo at 10 mg/kg: 20.1%
[5]
  inhibition in vivo at 10 mg/kg: 15.8%
[6]
  inhibition in vivo at 10 mg/kg: 15.1%

## CC(C(=O)O)c1ccc2c(c1)Sc1ccccc1CC2 (stereo not drawn) [Compound 9, 2-(10,11-dihydrodibenzo[b,f]thiepin-3-yl)-propionic acid]
[1]
  inhibition in vivo at 10 mg/kg: 52.1%
[2]
  inhibition in vivo at 10 mg/kg: 41%
[3]
  inhibition in vivo at 10 mg/kg: 27.5%
[4]
  inhibition in vivo at 10 mg/kg: 21.3%
[5]
  inhibition in vivo at 10 mg/kg: 16.6%
[6]
  inhibition in vivo at 10 mg/kg: 16.3%

## CC(C(N)=O)c1ccc2c(c1)C(=O)Cc1ccccc1O2 (stereo not drawn) [Compound 10, 2-(10,11-dihydro-11-oxodibenzo[b,f]oxepin-2-yl)-propionamide]
[1]
  inhibition in vivo at 10 mg/kg: 71.2%
[2]
  inhibition in vivo at 10 mg/kg: 69.3%
[3]
  inhibition in vivo at 10 mg/kg: 76.3%
[4]
  inhibition in vivo at 10 mg/kg: 76.7%
[5]
  inhibition in vivo at 10 mg/kg: 56.4%
[6]
  inhibition in vivo at 10 mg/kg: 34.4%

## CCOC(=O)C(C)c1ccc2c(c1)C(=O)Cc1ccccc1O2 (stereo not drawn) [Compound 11, Ethyl 2-(10,11-dihydro-11-oxodibenzo[b,f]oxepin-2-yl)-propionate]
[1]
  inhibition in vivo at 10 mg/kg: 21.2%
[2]
  inhibition in vivo at 10 mg/kg: 56.8%
[3]
  inhibition in vivo at 10 mg/kg: 64.9%
[4]
  inhibition in vivo at 10 mg/kg: 70%
[5]
  inhibition in vivo at 10 mg/kg: 62.8%
[6]
  inhibition in vivo at 10 mg/kg: 52.6%

## CC(C(=O)O)c1ccc2c(c1)C(=O)Cc1ccccc1O2 (stereo not drawn) [Compound 12, 2-(10,11-dihydro-11-oxodibenzo[b,f]oxepin-2-yl)-propionic acid]
[7]
  inhibition in vivo at 10 mg/kg: 34.2%
[8]
  inhibition in vivo at 10 mg/kg: 58.3%
[9]
  inhibition in vivo at 10 mg/kg: 79.4%
[10]
  inhibition in vivo at 10 mg/kg: 83.1%
[11]
  inhibition in vivo at 10 mg/kg: 71.1%
[12]
  inhibition in vivo at 10 mg/kg: 51.4%

## CC(C(=O)O)c1ccc2c(c1)CCc1ccccc1O2 (stereo not drawn) [Compound 13, 2-(10,11-dihydrodibenzo[b,f]oxepin-2-yl)-propionic acid]
[1]
  inhibition in vivo at 10 mg/kg: 42.4%
[2]
  inhibition in vivo at 10 mg/kg: 55.5%
[3]
  inhibition in vivo at 10 mg/kg: 65.4%
[4]
  inhibition in vivo at 10 mg/kg: 63.3%
[5]
  inhibition in vivo at 10 mg/kg: 49.1%
[6]
  inhibition in vivo at 10 mg/kg: 33.3%

## CCOC(=O)C(C)c1ccc2c(c1)CCc1ccccc1O2 (stereo not drawn) [Compound 14, Ethyl 2-(10,11-dihydrodibenzo[b,f]oxepin-2-yl)-propionate]
[1]
  inhibition in vivo at 10 mg/kg: 48.6%
[2]
  inhibition in vivo at 10 mg/kg: 67.6%
[3]
  inhibition in vivo at 10 mg/kg: 60.3%
[4]
  inhibition in vivo at 10 mg/kg: 53.2%
[5]
  inhibition in vivo at 10 mg/kg: 35.8%
[6]
  inhibition in vivo at 10 mg/kg: 26%

## CC(C(N)=O)c1ccc2c(c1)CCc1ccccc1O2 (stereo not drawn) [Compound 15, 2-(10,11-dihydrodibenzo[b,f]oxepin-2-yl)-propionamide]
[1]
  inhibition in vivo at 10 mg/kg: 36.1%
[2]
  inhibition in vivo at 10 mg/kg: 44.1%
[3]
  inhibition in vivo at 10 mg/kg: 53.3%
[4]
  inhibition in vivo at 10 mg/kg: 48.7%
[5]
  inhibition in vivo at 10 mg/kg: 33%
[6]
  inhibition in vivo at 10 mg/kg: 27.2%

## CC(C(=O)O)c1ccc2c(c1)Oc1ccccc1CC2=O (stereo not drawn) [Compound 16, 2-(10,11-dihydro-11-oxodibenzo[b,f]oxepin-3-yl)-propionic acid]
[1]
  inhibition in vivo at 10 mg/kg: 53.6%
[2]
  inhibition in vivo at 10 mg/kg: 49.9%
[3]
  inhibition in vivo at 10 mg/kg: 50.7%
[4]
  inhibition in vivo at 10 mg/kg: 46.2%
[5]
  inhibition in vivo at 10 mg/kg: 37%
[6]
  inhibition in vivo at 10 mg/kg: 26.2%

## CC(C(N)=O)c1cccc2c1Oc1ccccc1CC2=O (stereo not drawn) [Compound 17, 2-(10,11-dihydro-11-oxodibenzo[b,f]oxepin-4-yl)-propionamide]
[1]
  inhibition in vivo at 10 mg/kg: 65.9%
[2]
  inhibition in vivo at 10 mg/kg: 49.4%
[3]
  inhibition in vivo at 10 mg/kg: 35.4%
[4]
  inhibition in vivo at 10 mg/kg: 29%
[5]
  inhibition in vivo at 10 mg/kg: 17.2%
[6]
  inhibition in vivo at 10 mg/kg: 13%

## CC(C(=O)O)c1cccc2c1Oc1ccccc1CC2=O (stereo not drawn) [Compound 18, 2-(10,11-dihydro-11-oxodibenzo[b,f]oxepin-4-yl)-propionic acid]
1 hr, read-out: Inhibition (%) 1 hr
  inhibition in vivo at 8 mg/kg: 34.3%
2 hr, read-out: Inhibition (%) 2 hr
  inhibition in vivo at 8 mg/kg: 36.4%
3 hr, read-out: Inhibition (%) 3 hr
  inhibition in vivo at 8 mg/kg: 38.3%
4 hr, read-out: Inhibition (%) 4 hr
  inhibition in vivo at 8 mg/kg: 36.1%
5 hr, read-out: Inhibition (%) 5 hr
  inhibition in vivo at 8 mg/kg: 36.1%
6 hr, read-out: Inhibition (%) 6 hr
  inhibition in vivo at 8 mg/kg: 35.1%

## CC(C(=O)O)c1cccc2c1Oc1ccccc1CC2 (stereo not drawn) [Compound 19, 2-(10,11-dihydrodibenzo[b,f]oxepin-4-yl)-propionic acid]
[1]
  inhibition in vivo at 10 mg/kg: 45.1%
[2]
  inhibition in vivo at 10 mg/kg: 51.3%
[3]
  inhibition in vivo at 10 mg/kg: 28.2%
[4]
  inhibition in vivo at 10 mg/kg: 25.1%
[5]
  inhibition in vivo at 10 mg/kg: 18.7%
[6]
  inhibition in vivo at 10 mg/kg: 10.2%
